The values that follow come from PubChem BioAssay AID504765 (Sanford-Burnham Center for Chemical Genomics, 2011).

For this test, the target named is glucose-6-phosphate dehydrogenase-6-phosphogluconolactonase (Plasmodium falciparum 3D7). Nature of the test: PfG6PD inhibitor potency, dose response, biochemical, fluorescence intensity (AID 504765). To be noted: Recombinant PfG6PD enzyme, fluorescence intensity (NADPH).

Activity calls are given as the source filed them. No rule for the calls is given here. A value given as a limit tells only on which side of the number the result lay.

Turning to `Cc1ccc(-n2sc3ccccc3c2=O)cc1`, the IC50 – broadly, the point on the concentration scale where inhibition reaches its midpoint – is 8.63 µM.

`COc1cc(CN2CCCC(C(=O)c3ccc4c5c(cccc35)CC4)C2)cc(OC)c1O` (configuration not stated): the IC50 was 3.44 µM.

For `C=C1C(=O)O[C@@H]2C[C@@H](C)[C@@H]3C=CC(=O)[C@@]3(C)[C@@H](OC(=O)CC(=O)O[C@H]3[C@@H]4C(=C)C(=O)O[C@@H]4C[C@@H](C)[C@@H]4C=CC(=O)[C@]43C)[C@H]12`, the IC50 was 13.3 µM.

Consider `COc1cc(N)c2ncccc2c1OC`, for which the IC50 is 16.6 µM.

Take `CN(C)c1cccc2c1c(NC(=O)c1ccc(Cl)cc1)nn2C`: the IC50 is 8.65 µM.

`CN(C)c1ccc(/C=C/c2ccc3c4ccccc4ccc3[n+]2-c2ccccc2)cc1`: the IC50 result was “inactive”.

On to `O=[N+]([O-])c1ccc(-[n+]2ccc3ccccc3c2)c([N+](=O)[O-])c1`, for which the IC50 is 8.26 µM.

On to `Cc1ccsc1/C=N\NC(=O)CC(=O)NCc1ccccc1`, for which the IC50 is 6.41 µM.

Take `CCCCCCCCSC1=CC(=O)C(OC)=C(OC)C1=O`: the IC50 is 1.71 µM.

On to `CCNc1cc2c(cc1O)CCC1C2CCC2(C)C(O)CCC12` (configuration not stated), for which the IC50 entry is “inactive”.

On to `Cc1ccccc1N/C(SCc1cccc(Br)c1)=C(/C#N)C(N)=O`, for which the IC50 was 5.9 µM.

`O=C(Nc1nnc(C2CC2)s1)c1ccc(Cl)nc1`: the IC50 is 4.18 µM.

As for `Cc1nnc(SCC(=O)c2cc(C)n(-c3ccc4c(c3)OCO4)c2C)s1`, the IC50 is 7.35 µM.

Consider `O=S(=O)(Nc1ccccc1F)c1cccc(NC(=S)NCCN2CCOCC2)c1`, for which the IC50 was 7.87 µM.

As to `CCOC(=O)Cc1csc(-n2sc3ccccc3c2=O)n1`, the concentration for half-maximal inhibition (IC50) was 2.82 µM.

As for `CC(C)(C)NC(=O)COc1ccc(CNc2ccc3[nH]c(=O)[nH]c3c2)cc1`, the IC50 was 11.7 µM.

As for `CCN(CC)CCNC(=O)CCCCn1c(=S)[nH]c2c([nH]c3ccc(OC)cc32)c1=O`, the IC50 result is “inactive”.

On to `Oc1ccc(NCc2ccccc2OCc2ccccc2)cc1`, for which the IC50 entry was “inactive”.

On to `COc1ccc(C(=O)c2c(C(F)(F)F)oc3c2C(=O)c2ccccc2C3=O)cc1`, for which the IC50 result is “inactive”.

Regarding `COc1ccc2c(c1)c(=Cc1ccc(N(C)C)cc1)c1cc(-c3ccccc3)[n+](C)n12`, the IC50 was 17.2 µM.

For the compound `O=c1c2ccccc2sn1-c1cccc(Cl)c1`, the IC50 was 4.18 µM.

For the compound `CC(=O)Nc1ccc2c(c1)Cc1cc(N3C(=O)C=CC3=O)ccc1-2`, the IC50 was 19.3 µM.

On to `CCOC(=O)c1sc(NC(=O)CSc2nnc(Cc3ccccc3)o2)c(C#N)c1C`, for which the IC50 result was “inactive”.

`O=C(Nc1ccc(N2CCOCC2)c(Cl)c1)c1ccc(Cl)cc1`: the IC50 was 4.87 µM.

As to `Cc1ccc(N2CC(C(=O)OCC(=O)c3ccc([N+](=O)[O-])cc3)CC2=O)cc1` (configuration not stated), the IC50 was 8.7 µM.

`N#CC(C#N)=C1C=CC=CN1/C(=C\c1ccccc1Cl)C(=O)c1ccccc1`: the IC50 is 8.31 µM.

As for `O=[N+]([O-])c1ccc(N/N=C/c2ccc(O)c(O)c2O)c(S(=O)(=O)N2CCOCC2)c1`, the IC50 was 8.74 µM.

In the case of `COc1cc(NCCCn2cnc3c(OCc4ccccc4)ncnc32)cc(OC)c1OC`, the IC50 is > 80 µM (inactive).

`Oc1ccc(-c2cn3c(n2)SCC3)cc1O`: the IC50 was 11.5 µM.

As to `c1cc2c(cc1NC1CCCCCC1)OCO2`, the IC50 was 19.2 µM.

For `Cc1ccc(NC(=O)Cn2sc3ccccc3c2=O)cc1`, the IC50 is 4.24 µM.

In the case of `Cc1ccc(NC(=O)Cn2sc3nc(C)cc(C)c3c2=O)c(Cl)c1`, the IC50 is 2.09 µM.

In the case of `CN1/C(=C\C(=O)c2cccs2)Sc2ccccc21`, the IC50 was 7.44 µM.

In the case of `COc1ccc(N2CSC3=C(C#N)C(c4cc(OC)c(OC)cc4OC)CC(=O)N3C2)c(OC)c1` (configuration not stated), the IC50 is 3.13 µM.

As to `CCn1c2ccccc2c2nc3cc(S(=O)(=O)N4CCOCC4)ccc3nc21`, the IC50 result is “inactive”.

Turning to `Cn1c(=O)[nH]c(=O)c2c1[nH]c(=S)n2CCCc1ccccc1`, the IC50 entry was “inactive”.

Consider `CCC(c1ccc(O)c(O)c1)C(CC)c1ccc(O)c(O)c1` (configuration not stated), for which the IC50 entry was “inactive”.

With `O=C(Cc1ccccc1)NCC(=O)OCC(=O)c1ccc([N+](=O)[O-])cc1`, the IC50 is 10.6 µM.

Consider `Cc1ccc(S(=O)(=O)C=CS(=O)(=O)c2ccc(C)cc2)cc1`, for which the IC50 is 6.65 µM.

`CNCc1ccccc1Sc1cc(O)ccc1O`: the concentration for half-maximal inhibition (IC50) was 2.23 µM.

In the case of `COc1cccc(C(=O)Nc2nnc(C(C)C)s2)c1`, the IC50 is 5.83 µM.

For `C=CCOc1c(Cl)cc(CNc2ccc3[nH]c(=O)[nH]c3c2)cc1OC`, the IC50 was 7.9 µM.

Consider `COc1ccc(-n2c(=S)[nH]c3c(sc(=S)n3-c3ccccc3)c2=O)c(OC)c1`, for which the IC50 entry was “inactive”.

Consider `CCC(CO)[n+]1c(C)cc(/C=C2\Sc3ccccc3N2Cc2ccccc2)cc1C` (configuration not stated), for which the IC50 was 12.2 µM.

`O=C(Nc1ccccc1C(=O)N/N=C/c1ccco1)c1ccccc1Cl`: the IC50 is 10.6 µM.

Regarding `O=C(Nc1nnc(S(=O)(=O)N2CCCCCC2)s1)c1cccc(Br)c1`, the IC50 is 15.1 µM.

On to `COc1cccc(/C=N/NC(=O)c2c(C)nc3ccc(Br)cn23)c1`, for which the IC50 was 2.86 µM.

Take `COc1cccc(CNc2ccc3[nH]c(=O)[nH]c3c2)c1OCc1ccc(F)cc1`: the IC50 result is “inactive”.

Take `O=C(Nc1nnc(S(=O)(=O)N2CCOCC2)s1)c1cccc(Br)c1`: the IC50 was 5.58 µM.

With `COc1cc(N)c2ncccc2c1SC`, the IC50 result was “inactive”.

Turning to `Cc1ccc(/C=C2\C(=O)NC(=S)N(c3ccccc3F)C2=O)s1`, the IC50 entry is “inactive”.

Take `O=C1C=CC2=C3c4cc(O)c(O)cc4CC3(O)COC2=C1O` (configuration not stated): the IC50 was 6.49 µM.

For `O=c1[nH]c(NCCO)c(N=Cc2ccccc2)c(=O)[nH]1`, the IC50 was 1.03 µM.

For the compound `O=C(CCC(=O)OCC(=O)c1ccc([N+](=O)[O-])cc1)Nc1ccccc1Cl`, the IC50 was 6.61 µM.

As for `CCc1ccccc1N1CSC2=C(C#N)C(c3ccccc3F)CC(=O)N2C1` (configuration not stated), the IC50 was 9.2 µM.

Regarding `CCOc1ccccc1CNc1ccc(O)cc1`, the IC50 is 19.2 µM.

Consider `Cc1ccc(-c2c(C(=O)N/N=C/c3ccsc3)nnn2-c2nonc2N)cc1`, for which the IC50 result was “inactive”.

Regarding `COc1cc(NC(C)CCc2ccccc2)cc(OC)c1OC` (configuration not stated), the half-maximal inhibitory concentration (IC50) is 2.02 µM.

Take `O=C1Nc2cc(C(=O)NCCCN3CCCC3)ccc2S/C1=C/c1cccc(Cl)c1`: the IC50 is 17.9 µM.

Regarding `C[C@H](NC(N)=O)C(=O)Nc1ccc(N2CCOCC2)c(S(=O)(=O)Nc2ccc(Cl)cc2)c1`, the IC50 entry is “inactive”.

On to `CCOC(=O)c1ccc(-n2c(N)c(C(=O)NCC3CCCO3)sc2=S)cc1` (configuration not stated), for which the IC50 entry was “inactive”.

Consider `Cc1ccc(-c2nc(N3CCOCC3)s[n+]2-c2ccccc2)cc1`, for which the IC50 is 5.65 µM.

Turning to `CC(NC1=CC(=O)c2cccnc2C1=O)C(O)c1ccccc1` (configuration not stated), the IC50 is 4.03 µM.

In the case of `COC(=O)[C@H](C)NC(=O)c1cc2c(cn1)[nH]c1ccccc12`, the IC50 result is “inactive”.

Consider `[O-]/[N+](=C\c1ccco1)c1ccc(Cl)cc1`, for which the IC50 was 1.39 µM.

In the case of `Cc1c(C(=O)N(Cc2ccccc2Cl)C2CCS(=O)(=O)C2)oc2ccccc12` (configuration not stated), the IC50 was 4.36 µM.

With `Nc1ccc(S(=O)(=O)c2cc(O)c3ccccc3c2O)cc1`, the IC50 is 5.79 µM.

`COc1ccc(Nc2cc(C)c3c(O)cccc3n2)cc1`: the IC50 is 5.06 µM.

For the compound `O=[N+]([O-])c1cnc(Sc2ccncn2)c([N+](=O)[O-])c1`, the IC50 is 9.62 µM.

For `Cc1ccc(-c2nc(N)s[n+]2-c2ccccc2)cc1`, the IC50 is 9.13 µM.

In the case of `O=C(CNC(=O)c1cccs1)OCC(=O)c1ccc([N+](=O)[O-])cc1`, the IC50 is 13.9 µM.

Regarding `C[C@H](CO)N1C[C@H](C)[C@@H](CN(C)C(=O)Nc2ccc(C(F)(F)F)cc2)Oc2c(cccc2N(C)C)C1=O`, the IC50 is 5.05 µM.

Consider `CCOC(=O)c1cnc2ccc(C)cc2c1Sc1ccccc1C(=O)OC`, for which the IC50 was 11.1 µM.

For the compound `CC(C)Cn1c([N+](=O)[O-])nc2c1c(=O)[nH]c(=O)n2C`, the IC50 was 14.3 µM.

Consider `CCOc1ccc(NC(=O)Cn2sc3nc(C)cc(C)c3c2=O)cc1`, for which the IC50 is 1.85 µM.

For `O=c1c2ccccc2sn1-c1ccc(Cl)cc1Cl`, the IC50 was 3.98 µM.

With `Cc1ccc(/C=C/C(=O)NCC2COc3ccccc3O2)o1` (configuration not stated), the IC50 is 3.66 µM.

Turning to `COc1ccc(CNC(=O)Cc2cn(C)c3ccccc23)c(OC)c1`, the IC50 is 6.8 µM.

As to `O=C(CSc1nc2cc(Cl)ccc2s1)c1ccco1`, the concentration for half-maximal inhibition (IC50) was 6.04 µM.

For the compound `COc1ccc(C(=O)/C=C2\Sc3ccccc3N2C)cc1`, the IC50 was 7.94 µM.

On to `O=C(Cn1sc2ccccc2c1=O)Nc1ccccc1`, for which the IC50 was 1.97 µM.

As for `CC(=O)Nc1cc2c(cc1[N+](=O)[O-])-c1ccccc1C2O` (configuration not stated), the IC50 is 20 µM.

Consider `Cn1c(=O)[nH]c(=O)c2c1nc([N+](=O)[O-])n2Cc1ccccc1`, for which the IC50 was 3.16 µM.

For the compound `Cc1no[n+]([O-])c1COc1cccc(/C=N/Nc2nncn2N)c1`, the IC50 is 6.7 µM.

For `CN1C(=O)C(N=Nc2ccc([N+](=O)[O-])cc2)SC1=S` (configuration not stated), the IC50 is 5.43 µM.

Turning to `COc1cc(-c2nnc3n2N=C(c2ccccc2)CS3)cc(OC)c1OC`, the IC50 is 3.88 µM.

`O=C1NC(=O)C(=Cc2ccc(-c3ccccc3[N+](=O)[O-])o2)C(=O)N1`: the half-maximal inhibitory concentration (IC50) was 10.9 µM.

On to `Cc1ccc(/C=C/C(=O)N2CCN(S(=O)(=O)c3ccc(C)c(C)c3)CC2)o1`, for which the IC50 entry was “inactive”.

Regarding `Cc1cc(C)c2c(=O)n(CC(=O)N3CCC(N4CCCCC4)CC3)sc2n1`, the 50% inhibitory concentration (IC50) was 3.88 µM.

For `Cc1ccc(NC(=O)c2cc(C)n(-c3ccccc3)c2C)cc1`, the IC50 is 14.1 µM.

`C=CCN1CCc2cccc3c2[C@H]1Cc1ccc(O)c(O)c1-3`: the IC50 is 19.6 µM.

Turning to `O=C1C=CC(=O)N1CCNc1ncc(C(F)(F)F)cc1Cl`, the IC50 was 20 µM.

Take `CCN(CC)c1ccc(C(=C2C=CC(=[N+](CC)CC)C=C2)c2ccc(N(CC)CC)cc2)cc1`: the IC50 was 10.3 µM.

In the case of `COc1ccc(NC2CCCN(Cc3cccc4cnccc34)C2)cc1OC` (configuration not stated), the IC50 entry is “inactive”.

As to `Cc1ccc(S(=O)(=O)Nc2nc(C)c(C(=O)N/N=C/c3ccccc3)s2)cc1`, the IC50 is 4.58 µM.

Consider `ClC(Cl)(c1nnnn1-c1ccccc1)c1nnnn1-c1ccccc1`, for which the IC50 is 3.8 µM.

As to `COc1ccccc1NS(=O)(=O)c1cc(NC(=O)c2ccc(Cl)nc2)ccc1N1CCCC1`, the IC50 result is “inactive”.
